In EP3046573B1, “AMYLIN ANALOGUES” (Zealand Pharma A/S, priority 2013, dated 2015):
Numbered stars: 1 amine (or outer) side, 2 acyl side, 3 side chain; on linkers, the order of the positions; unused ones are H or OH. Bridge positions count the residues as written; N and C are the ends. Square brackets hold non-standard residues; d marks the D form. Peptide text beside a SMILES is read from it. * marks the point of attachment. C20 diacid = O=C(O)CCCCCCCCCCCCCCCCCCC(=O)*; Pro(4R-NH2) = N[C@H]1CN[C@H](C(=O)O)C1; γGlu = O=C(O)[C@H](CCC(=O)[*:2])N[*:1]; NMeI = CC[C@H](C)[C@H](NC)C(=O)O; Sar = CNCC(=O)O

Experiments:
[1] = target: T1, human amylin receptor 3 (hAMYR3) consisting of hCTR2 co-expressed with human Receptor Activity Modifying Protein 3 (hRAMP3) (Homo sapiens, UniProt O60896+P30988); assay: hAMYR3 assay: induction of cAMP (AlphaScreen cAMP Assay kit) in COS7 cells expressing hAMYR3; assay type: cell-based; details: cAMP induction in COS7 cells expressing hAMYR3; average of a minimum of 3 determinations; read-out: hAMY R3 EC50
T1 construct: expressed in transfected cells
T1 sequence (P30988 25-474): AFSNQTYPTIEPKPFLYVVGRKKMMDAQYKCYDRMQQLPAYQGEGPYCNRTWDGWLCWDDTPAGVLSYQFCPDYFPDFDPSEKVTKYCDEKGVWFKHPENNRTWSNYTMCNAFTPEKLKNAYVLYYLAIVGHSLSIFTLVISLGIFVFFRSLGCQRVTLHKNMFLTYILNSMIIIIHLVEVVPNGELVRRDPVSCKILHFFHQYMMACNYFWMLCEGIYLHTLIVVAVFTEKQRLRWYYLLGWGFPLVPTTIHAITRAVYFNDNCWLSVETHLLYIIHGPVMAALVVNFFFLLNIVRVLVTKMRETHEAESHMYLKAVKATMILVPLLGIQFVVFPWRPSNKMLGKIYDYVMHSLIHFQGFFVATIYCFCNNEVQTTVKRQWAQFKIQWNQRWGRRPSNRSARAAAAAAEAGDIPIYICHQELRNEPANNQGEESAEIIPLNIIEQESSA
T1 sequence (O60896 24-148 partner): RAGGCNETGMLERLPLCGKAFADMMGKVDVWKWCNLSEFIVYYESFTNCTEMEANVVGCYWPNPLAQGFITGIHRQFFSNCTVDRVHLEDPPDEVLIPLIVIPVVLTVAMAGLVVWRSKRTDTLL
Method in brief: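 cAMP accumulation read by AlphaScreen in lysates of RAMP-naive COS7 cells stably transfected with hCTR2 plus hRAMP3. Cells exposed to peptide dilutions for 15 min, 37° C, with 100 µM IBMX; 4PL fitting gave EC50 and efficacy relative to pramlintide.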

[2] = Solubility assessment (turbidity absorbance at 325 nm); assay type: physicochemical; details: stock 2 mg/ml diluted 1:1, ambient temperature (typically 25°C), n=1; for Solubility, Acetate buffer pH 4: 100 mM acetate buffer pH 4.0; for Solubility, Acetate buffer pH 5: 100 mM acetate buffer pH 5.0; for Solubility, Histidine buffer pH 6: 100 mM histidine buffer pH 6.0; for Solubility, Histidine buffer pH 7: 100 mM histidine buffer pH 7.0; for Solubility, Phosphate buffer pH 6: 100 mM phosphate buffer pH 6.0; for Solubility, Phosphate buffer pH 7: 100 mM phosphate buffer pH 7.0; for Solubility, Phosphate buffer pH 7.5: 100 mM phosphate buffer pH7.5
Method in brief: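 Read-out: turbidity as absorbance at 325 nm (280 nm also read), single samples, ambient temperature of typically 25°C. Samples were a 1:1 mix of 2 mg/ml stock (water, pH 2.5) with 100 mM acetate, histidine or phosphate buffers spanning pH 4.0–7.5. Cut-off: A325 ≤ 0.02 indicates ≥ 1 mg/ml.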

[3] = target: T2, human calcitonin receptor (hCTR2) (Homo sapiens, UniProt P30988); assay: hCTR2 assay: induction of cAMP (AlphaScreen cAMP Assay kit) in COS7 cells expressing hCTR2; assay type: cell-based; details: cAMP induction in COS7 cells expressing hCTR2; average of a minimum of 3 determinations; read-out: hCTR2 EC50
T2 construct: expressed in transfected cells
T2 sequence (P30988 25-474): T1 sequence (P30988 25-474)
Method in brief: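 cAMP read-out by AlphaScreen after cell lysis; EC50 and % efficacy vs pramlintide from 4-parameter logistic fitting. Agonist stimulation: hCTR2-COS7 stable cells, 15 min, 37° C, 100 µM IBMX, 0.1% casein, Tyrode/HEPES pH 7.4.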

Row | Compound | EC50 [1] [nM] | Solubility, Acetate buffer pH 4 [2] | Solubility, Acetate buffer pH 5 [2] | Solubility, Histidine buffer pH 6 [2] | Solubility, Histidine buffer pH 7 [2] | Solubility, Phosphate buffer pH 6 [2] | Solubility, Phosphate buffer pH 7 [2] | Solubility, Phosphate buffer pH 7.5 [2] | EC50 [3] [nM]
1 | CC[C@H](C)[C@@H](C(=O)N[C@@H](CC(C)C)C(=O)N[C@@H](CO)C(=O)N[C@@H](CO)C(=O)N[C@H](C(=O)N[C@@H](CC(N)=O)C(=O)N[C@H](C(=O)NCC(=O)N[C@@H](CO)C(=O)N[C@@H](CC(N)=O)C(=O)N[C@H](C(=O)N1C[C@H](N)C[C@H]1C(N)=O)[C@@H](C)O)C(C)C)[C@@H](C)O)N(C)C(=O)CN(C)C(=O)[C@H](Cc1ccccc1)NC(=O)[C@H](CC(N)=O)NC(=O)[C@H](CC(N)=O)NC(=O)[C@H](CO)NC(=O)[C@H](CO)NC(=O)[C@H](CCCNC(=N)N)NC(=O)[C@H](Cc1c[nH]cn1)NC(=O)[C@H](CC(C)C)NC(=O)[C@H](Cc1ccccc1)NC(=O)[C@H](CCC(=O)O)NC(=O)[C@H](C)NC(=O)[C@H](CC(C)C)NC(=O)[C@H](CCCNC(=N)N)NC(=O)[C@H](CCC(N)=O)NC(=O)[C@@H](NC(=O)[C@H](C)NC(=O)[C@@H]1CSSC[C@H](NC(=O)[C@H](CCCNC(=N)N)NC(=O)CC[C@H](NC(=O)CCCCCCCCCCCCCCCCCCC(=O)O)C(=O)O)C(=O)N[C@@H](CC(N)=O)C(=O)N[C@@H]([C@@H](C)O)C(=O)N[C@@H](C)C(=O)N[C@@H]([C@@H](C)O)C(=O)N1)[C@@H](C)O [Compound 111, [19CD]-isoGlu-RC()NTATC()ATQRLAEFLHRSSNNF-Gly(Me)-Ile(Me)-LSSTNVGSNT-Apr-NH2] ({C20 diacid-γGlu}-RCNTATCATQRLAEFLHRSSNNF[Sar][NMeI]LSSTNVGSNT[Pro(4R-NH2)]-NH2; disulfide 2-7) | 0.21 | SS (SS indicates solubility ≥ 1mg/ml) | SS (SS indicates solubility ≥ 1mg/ml) | SS (SS indicates solubility ≥ 1mg/ml) | SS (SS indicates solubility ≥ 1mg/ml) | SS (SS indicates solubility ≥ 1mg/ml) | SS (SS indicates solubility ≥ 1mg/ml) | SS (SS indicates solubility ≥ 1mg/ml) | 0.14
2 | CC[C@H](C)[C@@H](C(=O)N[C@@H](CC(C)C)C(=O)N[C@@H](CO)C(=O)N[C@@H](CO)C(=O)N[C@H](C(=O)N[C@@H](CC(=O)O)C(=O)N[C@H](C(=O)NCC(=O)N[C@@H](CO)C(=O)N[C@@H](CC(=O)O)C(=O)N[C@H](C(=O)N1CCC[C@H]1C(N)=O)[C@@H](C)O)C(C)C)[C@@H](C)O)N(C)C(=O)[C@H](C)NC(=O)CN(C)C(=O)[C@H](Cc1ccccc1)NC(=O)[C@H](CO)NC(=O)[C@H](CO)NC(=O)[C@H](CO)NC(=O)[C@H](CO)NC(=O)[C@H](CCCNC(=N)N)NC(=O)[C@H](Cc1c[nH]cn1)NC(=O)[C@H](CC(C)C)NC(=O)[C@H](Cc1ccccc1)NC(=O)[C@H](CCC(=O)O)NC(=O)[C@H](C)NC(=O)[C@H](CC(C)C)NC(=O)[C@H](CCCNC(=N)N)NC(=O)[C@H](CCC(=O)O)NC(=O)[C@@H](NC(=O)[C@H](C)NC(=O)[C@@H]1CSSC[C@H](NC(=O)[C@H](CCCCN)NC(=O)[C@H](CCCCN)NC(=O)CC[C@H](NC(=O)CCCCCCCCCCCCCCCCCCC(=O)O)C(=O)O)C(=O)N[C@@H](CC(N)=O)C(=O)N[C@@H]([C@@H](C)O)C(=O)N[C@@H](C)C(=O)N[C@@H]([C@@H](C)O)C(=O)N1)[C@@H](C)O [Compound 159, [19CD]-isoGlu-KKC()NTATC()ATERLAEFLHRSSSSF-Gly(Me)-A-Ile(Me)-LSSTDVGSDTP-NH2] ({C20 diacid-γGlu}-KKCNTATCATERLAEFLHRSSSSF[Sar]A[NMeI]LSSTDVGSDTP-NH2; disulfide 3-8) | 0.14 | SS (SS indicates solubility ≥ 1mg/ml) | SS (SS indicates solubility ≥ 1mg/ml) | SS (SS indicates solubility ≥ 1mg/ml) | SS (SS indicates solubility ≥ 1mg/ml) | SS (SS indicates solubility ≥ 1mg/ml) | SS (SS indicates solubility ≥ 1mg/ml) | SS (SS indicates solubility ≥ 1mg/ml) | 0.1
3 | CC[C@H](C)[C@@H](C(=O)N[C@@H](CC(C)C)C(=O)N[C@@H](CO)C(=O)N[C@@H](CO)C(=O)N[C@H](C(=O)N[C@@H](CCC(=O)O)C(=O)N[C@H](C(=O)NCC(=O)N[C@@H](CO)C(=O)N[C@@H](CCC(=O)O)C(=O)N[C@H](C(=O)N1CCC[C@H]1C(N)=O)[C@@H](C)O)C(C)C)[C@@H](C)O)N(C)C(=O)CN(C)C(=O)[C@H](Cc1ccccc1)NC(=O)[C@H](CO)NC(=O)[C@H](CO)NC(=O)[C@H](CO)NC(=O)[C@H](CO)NC(=O)[C@H](CCCNC(=N)N)NC(=O)[C@H](Cc1c[nH]cn1)NC(=O)[C@H](CC(C)C)NC(=O)[C@H](Cc1ccccc1)NC(=O)[C@H](CCC(=O)O)NC(=O)[C@H](C)NC(=O)[C@H](CC(C)C)NC(=O)[C@H](CCCNC(=N)N)NC(=O)[C@H](CCC(N)=O)NC(=O)[C@@H](NC(=O)[C@H](C)NC(=O)[C@@H]1CSSC[C@H](NC(=O)[C@H](CCCNC(=N)N)NC(=O)CC[C@H](NC(=O)CCCCCCCCCCCCCCCCCCC(=O)O)C(=O)O)C(=O)N[C@@H](CC(N)=O)C(=O)N[C@@H]([C@@H](C)O)C(=O)N[C@@H](C)C(=O)N[C@@H]([C@@H](C)O)C(=O)N1)[C@@H](C)O [Compound 77, [19CD]-isoGlu-RC()NTATC()ATQRLAEFLHRSSSSF-Gly(Me)-Ile(Me)-LSSTEVGSETP-NH2] ({C20 diacid-γGlu}-RCNTATCATQRLAEFLHRSSSSF[Sar][NMeI]LSSTEVGSETP-NH2; disulfide 2-7) | 0.24 | SS (SS indicates solubility ≥ 1mg/ml) | II (II indicates solubility ≤ 1 mg/ml) | II (II indicates solubility ≤ 1 mg/ml) | SS (SS indicates solubility ≥ 1mg/ml) | II (II indicates solubility ≤ 1 mg/ml) | SS (SS indicates solubility ≥ 1mg/ml) | SS (SS indicates solubility ≥ 1mg/ml) | 0.17
4 | CC[C@H](C)[C@@H](C(=O)N[C@@H](CC(C)C)C(=O)N[C@@H](CO)C(=O)N[C@@H](CO)C(=O)N[C@H](C(=O)N[C@@H](CCC(=O)O)C(=O)N[C@H](C(=O)NCC(=O)N[C@@H](CO)C(=O)N[C@@H](CCC(=O)O)C(=O)N[C@H](C(=O)N1CCC[C@H]1C(N)=O)[C@@H](C)O)C(C)C)[C@@H](C)O)N(C)C(=O)[C@H](C)NC(=O)CN(C)C(=O)[C@H](Cc1ccccc1)NC(=O)[C@H](CO)NC(=O)[C@H](CO)NC(=O)[C@H](CO)NC(=O)[C@H](CO)NC(=O)[C@H](CCCNC(=N)N)NC(=O)[C@H](Cc1c[nH]cn1)NC(=O)[C@H](CC(C)C)NC(=O)[C@H](Cc1ccccc1)NC(=O)[C@H](CCC(=O)O)NC(=O)[C@H](C)NC(=O)[C@H](CC(C)C)NC(=O)[C@H](CCCNC(=N)N)NC(=O)[C@H](CC(=O)O)NC(=O)[C@@H](NC(=O)[C@H](C)NC(=O)[C@@H]1CSSC[C@H](NC(=O)[C@H](CCCNC(=N)N)NC(=O)CC[C@H](NC(=O)CCCCCCCCCCCCCCCCCCC(=O)O)C(=O)O)C(=O)N[C@@H](CO)C(=O)N[C@@H]([C@@H](C)O)C(=O)N[C@@H](C)C(=O)N[C@@H]([C@@H](C)O)C(=O)N1)[C@@H](C)O [Compound 148, [19CD]-isoGlu-RC()STATC()ATDRLAEFLHRSSSSF-Gly(Me)-A-Ile(Me)-LSSTEVGSETP-NH2] ({C20 diacid-γGlu}-RCSTATCATDRLAEFLHRSSSSF[Sar]A[NMeI]LSSTEVGSETP-NH2; disulfide 2-7) | 0.17 | SS (SS indicates solubility ≥ 1mg/ml) | SS (SS indicates solubility ≥ 1mg/ml) | SS (SS indicates solubility ≥ 1mg/ml) | SS (SS indicates solubility ≥ 1mg/ml) | SS (SS indicates solubility ≥ 1mg/ml) | SS (SS indicates solubility ≥ 1mg/ml) | SS (SS indicates solubility ≥ 1mg/ml) | 0.14
